How the values were obtained:
[1] = target: T1, ACAT1 C413 (P24752) (Homo sapiens, UniProt P24752); assay: Competitive isoTOP-ABPP, cell lysates; type: binding; conditions: for R value (DMSO/fragment): in vitro, MDA-MB-231; for isoTOP-ABPP ratio P24752_C413: invitro
T1 sequence (P24752 34-427): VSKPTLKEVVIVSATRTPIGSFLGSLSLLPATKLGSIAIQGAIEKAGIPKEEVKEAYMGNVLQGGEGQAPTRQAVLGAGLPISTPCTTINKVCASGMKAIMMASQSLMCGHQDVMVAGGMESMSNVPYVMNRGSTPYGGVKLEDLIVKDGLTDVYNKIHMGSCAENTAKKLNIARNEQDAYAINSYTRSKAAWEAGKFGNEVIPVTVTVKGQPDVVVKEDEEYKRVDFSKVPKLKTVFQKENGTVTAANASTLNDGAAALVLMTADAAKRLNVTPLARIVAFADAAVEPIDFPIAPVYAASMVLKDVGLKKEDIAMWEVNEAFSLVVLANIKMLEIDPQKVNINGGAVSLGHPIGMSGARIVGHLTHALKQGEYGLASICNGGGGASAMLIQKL

[2] = target: T2, cysteines in MDA-MB-231 and Ramos cells (Homo sapiens, UniProt Q9UMS0); assay: Competitive isoTOP-ABPP in situ (fragment-treated cells); type: cell-based
T2 sequence (Q9UMS0 10-254): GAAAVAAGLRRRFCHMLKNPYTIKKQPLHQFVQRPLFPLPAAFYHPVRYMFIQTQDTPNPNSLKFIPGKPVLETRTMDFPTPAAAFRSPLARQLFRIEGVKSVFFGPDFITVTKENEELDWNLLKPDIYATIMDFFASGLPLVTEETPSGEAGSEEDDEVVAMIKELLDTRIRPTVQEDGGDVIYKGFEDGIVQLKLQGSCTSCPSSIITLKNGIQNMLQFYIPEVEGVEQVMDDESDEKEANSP

[3] = target: cysteines in MDA-MB-231 and Ramos cells (Homo sapiens, UniProt P12268); assay: as above; type: cell-based
[4] = target: T3, cysteines in MDA-MB-231 and Ramos cells (Homo sapiens, UniProt Q09161); assay: as above; type: cell-based
T3 sequence (Q09161 1-790): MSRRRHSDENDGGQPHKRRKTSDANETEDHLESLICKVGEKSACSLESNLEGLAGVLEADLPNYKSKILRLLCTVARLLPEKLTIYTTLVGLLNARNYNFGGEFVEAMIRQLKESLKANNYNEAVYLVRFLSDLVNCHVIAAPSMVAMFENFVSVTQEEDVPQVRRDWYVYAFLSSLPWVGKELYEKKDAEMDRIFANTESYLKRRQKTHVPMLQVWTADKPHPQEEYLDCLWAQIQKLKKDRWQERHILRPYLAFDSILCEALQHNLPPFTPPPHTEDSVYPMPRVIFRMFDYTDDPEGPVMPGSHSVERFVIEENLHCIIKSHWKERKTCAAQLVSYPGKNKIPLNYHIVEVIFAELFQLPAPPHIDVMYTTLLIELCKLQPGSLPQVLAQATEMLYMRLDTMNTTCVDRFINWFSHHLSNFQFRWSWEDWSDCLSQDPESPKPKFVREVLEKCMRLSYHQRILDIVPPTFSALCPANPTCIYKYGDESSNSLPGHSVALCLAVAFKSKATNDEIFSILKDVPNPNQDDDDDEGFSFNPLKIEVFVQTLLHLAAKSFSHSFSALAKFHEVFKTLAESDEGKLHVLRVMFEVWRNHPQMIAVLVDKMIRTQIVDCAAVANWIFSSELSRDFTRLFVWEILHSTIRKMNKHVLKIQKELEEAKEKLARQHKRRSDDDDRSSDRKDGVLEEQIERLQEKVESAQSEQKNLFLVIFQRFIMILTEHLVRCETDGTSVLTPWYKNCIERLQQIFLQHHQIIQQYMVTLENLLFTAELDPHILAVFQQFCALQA

[5] = target: T4, cysteines in MDA-MB-231 and Ramos cells (Homo sapiens, UniProt P04183); assay: as above; type: cell-based
T4 sequence (P04183 1-234): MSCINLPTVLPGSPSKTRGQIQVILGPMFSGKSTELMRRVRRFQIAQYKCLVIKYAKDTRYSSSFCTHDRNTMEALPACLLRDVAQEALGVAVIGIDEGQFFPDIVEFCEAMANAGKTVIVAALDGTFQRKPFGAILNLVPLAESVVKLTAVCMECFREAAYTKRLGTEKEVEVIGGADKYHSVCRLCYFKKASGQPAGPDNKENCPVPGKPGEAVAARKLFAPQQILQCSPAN

[6] = target: T5, ERCC3 C342 (P19447) (Homo sapiens, UniProt P19447); assay: Competitive isoTOP-ABPP, cell lysates; type: binding; conditions: for R value (DMSO/fragment): in vitro; for isoTOP-ABPP ratio P19447_C342: invitro, 231
T5 sequence (P19447 1-782): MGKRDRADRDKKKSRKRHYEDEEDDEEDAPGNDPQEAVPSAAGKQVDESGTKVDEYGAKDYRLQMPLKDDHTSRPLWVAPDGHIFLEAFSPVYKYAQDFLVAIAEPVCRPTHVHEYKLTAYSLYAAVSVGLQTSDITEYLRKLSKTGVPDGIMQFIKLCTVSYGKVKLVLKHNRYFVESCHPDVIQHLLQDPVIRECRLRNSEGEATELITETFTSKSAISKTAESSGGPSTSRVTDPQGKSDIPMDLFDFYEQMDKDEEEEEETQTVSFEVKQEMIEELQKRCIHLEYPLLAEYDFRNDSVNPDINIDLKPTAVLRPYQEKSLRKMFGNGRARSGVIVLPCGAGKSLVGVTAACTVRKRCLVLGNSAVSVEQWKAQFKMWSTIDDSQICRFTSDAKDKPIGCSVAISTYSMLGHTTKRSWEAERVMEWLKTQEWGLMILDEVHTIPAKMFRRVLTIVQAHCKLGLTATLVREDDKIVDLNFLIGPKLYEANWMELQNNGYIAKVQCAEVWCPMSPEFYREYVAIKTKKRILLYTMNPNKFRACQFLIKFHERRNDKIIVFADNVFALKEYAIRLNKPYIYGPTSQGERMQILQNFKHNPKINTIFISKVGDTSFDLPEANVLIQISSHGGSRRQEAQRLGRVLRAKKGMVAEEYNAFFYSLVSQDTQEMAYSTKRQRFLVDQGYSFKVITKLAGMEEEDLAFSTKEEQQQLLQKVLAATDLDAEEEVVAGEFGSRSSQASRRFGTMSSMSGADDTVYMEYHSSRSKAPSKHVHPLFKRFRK

SMILES | isoTOP-ABPP ratio P24752_C413 ([1]; 500 μM, 231) | isoTOP-ABPP ratio P24752_C413 ([1]; 500 μM, ramos) | isoTOP-ABPP ratio Q9UMS0_C213 ([2]; 200 μM, insitu, 231) | isoTOP-ABPP ratio P12268_C140 ([3]; 200 μM, insitu, 231) | isoTOP-ABPP ratio P12268_C331 ([3]; 200 μM, insitu, ramos) | isoTOP-ABPP ratio Q09161_C44 ([4]; 200 μM, insitu, 231) | isoTOP-ABPP ratio P04183_C230 ([5]; 200 μM, insitu, 231) | isoTOP-ABPP ratio P19447_C342 ([6]; 500 μM) | also measured
COc1ccc2c(c1)CCCN2C(=O)CCl [compound 2] |  |  |  |  |  |  |  |  | R value (DMSO/fragment) ([1]; 500 μM): 18.1; isoTOP-ABPP reactivity Q9UMS0_C213 NFU1 ([2]; 200 μM, insitu, 231): 7.4; isoTOP-ABPP reactivity P12268_C140 IMPDH2 ([3]; 200 μM, insitu, 231): 1.3; isoTOP-ABPP reactivity P12268_C331 IMPDH2 ([3]; 200 μM, insitu, 231): 12.1; isoTOP-ABPP reactivity Q09161_C44 NCBP1 ([4]; 200 μM, insitu, 231): 2.1; isoTOP-ABPP reactivity P04183_C230 TK1 ([5]; 200 μM, insitu, 231): 1.9; R value (DMSO/fragment) ([6]; 500 μM, MDA-MB-231): 20.0
COc1ccc(C2CC(c3cccs3)=NN2C(=O)CCl)cc1 (stereo not drawn) [compound 4] |  |  |  |  |  |  |  |  | R value (DMSO/fragment) ([1]; 250 μM): 3.3; isoTOP-ABPP reactivity Q9UMS0_C213 NFU1 ([2]; 100 μM in situ 231): 4.4; isoTOP-ABPP reactivity P12268_C140 IMPDH2 ([3]; 100 μM in situ 231): 1.0; isoTOP-ABPP reactivity P12268_C331 IMPDH2 ([3]; 100 μM in situ 231): 4.6; isoTOP-ABPP reactivity Q09161_C44 NCBP1 ([4]; 100 μM in situ 231): 1.8; isoTOP-ABPP reactivity P04183_C230 TK1 ([5]; 100 μM in situ 231): 0.8; R value (DMSO/fragment) ([6]; 250 μM, MDA-MB-231): 1.6; R value (DMSO/fragment) ([6]; 250 μM, Ramos): 1.1
O=C(CCl)NC(=O)NC12CC3CC(CC(C3)C1)C2 [compound 12] | 1.5 | 1.1 | 20.0 | 1.2 |  | 4.7 |  | 3.0 | 

The next lines start with results.

isoTOP-ABPP ratio P24752_C413 ([1]; 500 μM, 231) | isoTOP-ABPP ratio P24752_C413 ([1]; 500 μM, ramos) | isoTOP-ABPP ratio Q9UMS0_C213 ([2]; 200 μM, insitu, 231) | isoTOP-ABPP ratio P12268_C140 ([3]; 200 μM, insitu, 231) | isoTOP-ABPP ratio P12268_C331 ([3]; 200 μM, insitu, ramos) | isoTOP-ABPP ratio Q09161_C44 ([4]; 200 μM, insitu, 231) | isoTOP-ABPP ratio P04183_C230 ([5]; 200 μM, insitu, 231) | isoTOP-ABPP ratio P19447_C342 ([6]; 500 μM) | SMILES | also measured
13.0 | 1.6 | 20.0 | 0.7 | 2.1 | 12.4 | 1.3 | 3.0 | O=C(CCl)N1CCN(S(=O)(=O)c2ccccc2F)CC1 [compound 10] | isoTOP-ABPP ratio P12268_C140 ([3]; 200 μM, insitu, ramos): 0.9
5.5 | 7.3 | 1.6 | 0.7 | 1.4 | 1.0 | 0.7 | 1.0 | O=C(CCl)NCCc1c[nH]c2ccccc12 [compound 13] | isoTOP-ABPP ratio, cysteine P04183_C66 ([5]; 200 μM, insitu, 231): 1.0
